According to ChEMBL document CHEMBL3769371, “1-[(2E)-3-Phenylprop-2-enoyl]-1H-benzimidazoles as anticancer agents: synthesis, crystal structure analysis and binding studies of the most potent anticancer molecule with serum albumin” (Medchemcomm, 2015):

Assays:
[1] = Cytotoxicity against human MOLT4 cells assessed as cell growth at 10^-5 M after 48 hrs by SRB assay; type: functional; conditions: MOLT-4, 48 h, read-out: Activity
[2] = test system: NCI-H226; test: Cytotoxicity against human NCI-H226 cells assessed as cell growth at 10^-5 M after 48 hrs by SRB assay; type: functional; conditions: NCI-H226, 48 h, read-out: Activity
[3] = test system: NCI-H322M; test: Cytotoxicity against human NCI-H322M cells assessed as cell growth at 10^-5 M after 48 hrs by SRB assay; type: functional; conditions: read-out: Activity
[4] = test system: NCI-H460; test: Cytotoxicity against human NCI-H460 cells assessed as cell growth at 10^-5 M after 48 hrs by SRB assay; type: functional; conditions: NCI-H460, 48 h, read-out: Activity
[5] = Cytotoxicity against human SW620 cells assessed as cell growth at 10^-5 M after 48 hrs by SRB assay; type: functional; conditions: SW-620, 48 h, read-out: Activity
[6] = Cytotoxicity against human SF295 cells assessed as cell growth at 10^-5 M after 48 hrs by SRB assay; type: functional; conditions: SF-295, 48 h, read-out: Activity
[7] = Cytotoxicity against human LOXIMVI cells assessed as cell growth at 10^-5 M after 48 hrs by SRB assay; type: functional; conditions: LOX IMVI, read-out: Activity
[8] = test system: MDA-MB-435; test: Cytotoxicity against human MDA-MB-435 cells assessed as cell growth at 10^-5 M after 48 hrs by SRB assay; type: functional; conditions: MDA-MB-435, 48 h, read-out: Activity
[9] = test system: SK-MEL-2; test: Cytotoxicity against human SK-MEL-2 cells assessed as cell growth at 10^-5 M after 48 hrs by SRB assay; type: functional; conditions: SK-MEL-2, 48 h, read-out: Activity
[10] = test system: SK-MEL-28; test: Cytotoxicity against human SK-MEL-28 cells assessed as cell growth at 10^-5 M after 48 hrs by SRB assay; type: functional; conditions: SK-MEL-28, 48 h, read-out: Activity
[11] = test system: SK-MEL-5; test: Cytotoxicity against human SK-MEL-5 cells assessed as cell growth at 10^-5 M after 48 hrs by SRB assay; type: functional; conditions: SK-MEL-5, 48 h, read-out: Activity
[12] = Cytotoxicity against human OVCAR3 cells assessed as cell growth at 10^-5 M after 48 hrs by SRB assay; type: functional; conditions: OVCAR-3, 48 h, read-out: Activity
[13] = test system: 786-0; test: Cytotoxicity against human 786-0 cells assessed as cell growth at 10^-5 M after 48 hrs by SRB assay; type: functional; conditions: 786-0, 48 h, read-out: Activity
[14] = Cytotoxicity against human TK10 cells assessed as cell growth at 10^-5 M after 48 hrs by SRB assay; type: functional; conditions: TK-10, 48 h, read-out: Activity
[15] = test system: MDA-MB-231; test: Cytotoxicity against human MDA-MB-231 cells assessed as cell growth at 10^-5 M after 48 hrs by SRB assay; type: functional; conditions: MDA-MB-231, 48 h, read-out: Activity
[16] = test system: CCRF-CEM; test: Cytotoxicity against human CCRF-CEM cells after 48 hrs by SRB assay; type: functional
[17] = test system: A549; test: Cytotoxicity against human A549 cells after 48 hrs by SRB assay; type: functional; conditions: A549, 48 h
[18] = test system: NCI-H226; test: Cytotoxicity against human NCI-H226 cells after 48 hrs by SRB assay; type: functional; conditions: NCI-H226, 48 h
[19] = test system: NCI-H460; test: Cytotoxicity against human NCI-H460 cells after 48 hrs by SRB assay; type: functional; conditions: NCI-H460, 48 h
[20] = Cytotoxicity against human HCT116 cells after 48 hrs by SRB assay; type: functional; conditions: HCT-116, 48 h
[21] = test system: HT-29; test: Cytotoxicity against human HT-29 cells after 48 hrs by SRB assay; type: functional; conditions: HT-29, 48 h
[22] = Cytotoxicity against human SW620 cells after 48 hrs by SRB assay; type: functional; conditions: SW-620, 48 h
[23] = Cytotoxicity against human LOXIMVI cells after 48 hrs by SRB assay; type: functional; conditions: LOX IMVI
[24] = test system: SK-MEL-28; test: Cytotoxicity against human SK-MEL-28 cells after 48 hrs by SRB assay; type: functional; conditions: SK-MEL-28, 48 h
[25] = test system: SK-MEL-5; test: Cytotoxicity against human SK-MEL-5 cells after 48 hrs by SRB assay; type: functional; conditions: SK-MEL-5, 48 h
[26] = Cytotoxicity against human UACC257 cells after 48 hrs by SRB assay; type: functional; conditions: UACC-257, 48 h
[27] = Cytotoxicity against human NCI-ADR-RES cells after 48 hrs by SRB assay; type: functional
[28] = Cytotoxicity against human SKOV3 cells after 48 hrs by SRB assay; type: functional; conditions: SK-OV-3, 48 h
[29] = Cytotoxicity against human RXF393 cells after 48 hrs by SRB assay; type: functional; conditions: RXF 393, 48 h
[30] = test system: MDA-MB-231; test: Cytotoxicity against human MDA-MB-231 cells after 48 hrs by SRB assay; type: functional; conditions: MDA-MB-231, 48 h
[31] = Cytotoxicity against human Hs 578T cells after 48 hrs by SRB assay; type: functional
[32] = test system: MDA-MB-468; test: Cytotoxicity against human MDA-MB-468 cells after 48 hrs by SRB assay; type: functional; conditions: MDA-MB-468, 48 h
[33] = molecular target: T1, Albumin (Homo sapiens, UniProt P02768); test: Binding affinity to human serum albumin at 0.25 to 2 uM at 303 K by fluorescence microscopic analysis in the presence of phenylbutazone; type: ADME; conditions: isolated protein
T1 sequence (P02768 whole entry): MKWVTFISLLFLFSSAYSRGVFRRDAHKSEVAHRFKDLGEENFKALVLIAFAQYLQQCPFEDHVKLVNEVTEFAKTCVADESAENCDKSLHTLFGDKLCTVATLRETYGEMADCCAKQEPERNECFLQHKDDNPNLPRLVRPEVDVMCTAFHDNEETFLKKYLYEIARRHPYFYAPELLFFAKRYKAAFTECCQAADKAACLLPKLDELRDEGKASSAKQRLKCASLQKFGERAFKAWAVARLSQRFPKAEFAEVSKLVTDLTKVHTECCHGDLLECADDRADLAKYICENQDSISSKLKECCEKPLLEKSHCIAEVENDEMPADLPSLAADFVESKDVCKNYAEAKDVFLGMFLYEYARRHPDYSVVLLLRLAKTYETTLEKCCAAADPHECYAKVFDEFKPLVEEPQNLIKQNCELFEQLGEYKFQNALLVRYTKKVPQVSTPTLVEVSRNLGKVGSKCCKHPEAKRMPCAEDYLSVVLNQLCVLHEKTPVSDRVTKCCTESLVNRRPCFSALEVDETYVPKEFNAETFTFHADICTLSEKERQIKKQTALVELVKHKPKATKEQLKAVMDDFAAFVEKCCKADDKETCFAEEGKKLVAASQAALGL

[34] = molecular target: T1, Albumin; test: Binding affinity to human serum albumin at 0.25 to 2 uM at 288 K by fluorescence microscopic analysis; type: ADME; conditions: isolated protein
[35] = test system: K562; test: Antiproliferative activity against human K562 cells at 10'5 M; type: functional
[36] = Antiproliferative activity against human NCI-ADR-RES cells at 10'5 M; type: functional
[37] = Antiproliferative activity against human HCC2998 cells at 10'5 M; type: functional, HCC 2998
[38] = read-out: LC50 (the source's name)

O=C(/C=C/c1ccccc1)n1c(-c2ccc(Cl)cc2)nc2ccccc21
growth at 10 µM [1]: 21.9%
growth at 10 µM [2]: -55.3%
growth at 10 µM [3]: 45%
growth at 10 µM [4]: 0.54%
growth at 10 µM [5]: -55.1%
growth at 10 µM [6]: -52%
growth at 10 µM [7]: -82.9%
growth at 10 µM [8]: -44.3%
growth at 10 µM [9]: -36%
growth at 10 µM [10]: -65.4%
growth at 10 µM [11]: -70.6%
growth at 10 µM [12]: -57.2%
growth at 10 µM [13]: -17.6%
growth at 10 µM [14]: 18.6%
growth at 10 µM [15]: -26.5%
GI50 [16]: 0.73 µM
TGI [16]: 3.45 µM
CC50 [16, 38]: > 100 µM
GI50 [17]: 0.38 µM
TGI [17]: 1.88 µM
CC50 [17, 38]: > 100 µM
GI50 [18]: 1.46 µM
TGI [18]: 3.82 µM
CC50 [18, 38]: 10 µM
GI50 [19]: 1.96 µM
TGI [19]: 6.52 µM
CC50 [19, 38]: 25.5 µM
GI50 [20]: 1.8 µM
TGI [20]: 3.45 µM
CC50 [20, 38]: 6.61 µM
GI50 [21]: 1.34 µM
TGI [21]: 7.05 µM
CC50 [21, 38]: 29.8 µM
GI50 [22]: 1.44 µM
TGI [22]: 2.93 µM
CC50 [22, 38]: 5.97 µM
GI50 [23]: 1.6 µM
TGI [23]: 3.22 µM
CC50 [23, 38]: 6.5 µM
GI50 [24]: 2.1 µM
TGI [24]: 4.35 µM
CC50 [24, 38]: 9.02 µM
GI50 [25]: 1.49 µM
TGI [25]: 3.22 µM
CC50 [25, 38]: 6.92 µM
GI50 [26]: 1.64 µM
TGI [26]: 3.12 µM
CC50 [26, 38]: 5.93 µM
GI50 [27]: 0.75 µM
TGI [27]: 10.3 µM
CC50 [27, 38]: 62.1 µM
GI50 [28]: 1.49 µM
TGI [28]: 61.3 µM
CC50 [28, 38]: > 100 µM
GI50 [29]: 1.32 µM
TGI [29]: 3.12 µM
CC50 [29, 38]: 7.37 µM
GI50 [30]: 1.88 µM
TGI [30]: 5.18 µM
CC50 [30, 38]: 25.4 µM
GI50 [31]: 2.57 µM
TGI [31]: 17.9 µM
CC50 [31, 38]: > 100 µM
GI50 [32]: 1.52 µM
TGI [32]: 4.32 µM
CC50 [32, 38]: 23.7 µM
K [33]: 3.5 ×10³ /M
K [34]: 2.24 ×10⁵ /mol
growth inhibition (GI) [35]: 60.22%
growth inhibition (GI) [36]: 89.22%
growth inhibition (GI) [37]: 94.92%
